# Test system: Pseudomonas aeruginosa
# Assay: Antimicrobial activity against Pseudomonas aeruginosa CICC 21630 clinical isolates after 24 hrs by NCCLS-protocol based assay
# Format: functional
# Conditions: CICC 21630, 24 h
row,Substance,MIC95
1,H-LKPLLKPLLKPLLKPLLKPLLKPLLKPLLKPL-NH2,4 µM
2,H-LRPLLRPLLRPLLRPL-NH2,> 64 µM

# Test system: Pseudomonas aeruginosa
# Assay: Antimicrobial activity against Pseudomonas aeruginosa 26305 clinical isolates after 24 hrs by NCCLS-protocol based assay
# Format: functional
# Conditions: Pseudomonas aeruginosa, 26305, 24 h
row,Substance,MIC95
1,H-LKPLLKPLLKPLLKPLLKPLLKPLLKPLLKPL-NH2,4 µM
2,H-LRPLLRPLLRPLLRPL-NH2,> 64 µM

# Test system: Pseudomonas aeruginosa
# Assay: Bactericidal activity against Pseudomonas aeruginosa 26305 clinical isolates incubated for 4 hrs followed by culture spread on agar plates and cultured overnight
# Format: functional
# Conditions: Pseudomonas aeruginosa, 26305, 4 h; read-out: MBC>99.9
row,Substance,MBC
1,H-LKPLLKPLLKPLLKPLLKPLLKPLLKPLLKPL-NH2,8 µM
2,H-LRPLLRPLLRPLLRPL-NH2,> 64 µM

# Test system: Escherichia coli
# Assay: Bactericidal activity against Escherichia coli ATCC 25922 incubated for 4 hrs followed by culture spread on agar plates and cultured overnight
# Format: functional
# Conditions: ATCC 25922, 4 h, read-out: MBC>99.9
row,Substance,MBC
1,H-LKPLLKPLLKPLLKPLLKPLLKPLLKPLLKPL-NH2,1 µM
2,H-LRPLLRPLLRPLLRPL-NH2,8 µM

# Test system: Escherichia coli
# Assay: Antimicrobial activity against Escherichia coli 078 after 24 hrs by NCCLS-protocol based assay
# Format: functional
# Conditions: Escherichia coli, 078, 24 h
row,Substance,MIC95
1,H-LKPLLKPLLKPLLKPLLKPLLKPLLKPLLKPL-NH2,2 µM
2,H-LRPLLRPLLRPLLRPL-NH2,16 µM

# Test system: Pseudomonas aeruginosa
# Assay: Bactericidal activity against Pseudomonas aeruginosa ATCC 27853 incubated for 4 hrs followed by culture spread on agar plates and cultured overnight
# Format: functional
# Conditions: ATCC 27853, 4 h, read-out: MBC>99.9
row,Substance,MBC
1,H-LKPLLKPLLKPLLKPLLKPLLKPLLKPLLKPL-NH2,2 µM
2,H-LRPLLRPLLRPLLRPL-NH2,> 64 µM

# Test system: Escherichia coli
# Assay: Bactericidal activity against Escherichia coli K88 incubated for 4 hrs followed by culture spread on agar plates and cultured overnight
# Format: functional
# Conditions: K88, 4 h, read-out: MBC>99.9
row,Substance,MBC
1,H-LKPLLKPLLKPLLKPLLKPLLKPLLKPLLKPL-NH2,1 µM
2,H-LRPLLRPLLRPLLRPL-NH2,8 µM

# Test system: not listed separately
# Assay: Antimicrobial activity against Salmonella pullorum C7913 after 24 hrs by NCCLS-protocol based assay
# Format: functional, Salmonella enterica subsp. enterica serovar Pullorum
# Conditions: Salmonella enterica, C7913, 24 h
row,Substance,MIC95
1,H-LKPLLKPLLKPLLKPLLKPLLKPLLKPLLKPL-NH2,2 µM
2,H-LRPLLRPLLRPLLRPL-NH2,8 µM

# Test system: not listed separately
# Assay: Bactericidal activity against Salmonella pullorum C7913 incubated for 4 hrs followed by culture spread on agar plates and cultured overnight
# Format: functional, Salmonella enterica subsp. enterica serovar Pullorum
# Conditions: Salmonella enterica, C7913, 4 h; read-out: MBC>99.9
row,Substance,MBC
1,H-LKPLLKPLLKPLLKPLLKPLLKPLLKPLLKPL-NH2,4 µM
2,H-LRPLLRPLLRPLLRPL-NH2,16 µM

# Test system: Salmonella typhimurium
# Assay: Antimicrobial activity against Salmonella typhimurium ATCC 14028 after 24 hrs by NCCLS-protocol based assay
# Format: functional, Salmonella enterica subsp. enterica serovar Typhimurium
# Conditions: Salmonella enterica, ATCC 14028, 24 h
row,Substance,MIC95
1,H-LKPLLKPLLKPLLKPLLKPLLKPLLKPLLKPL-NH2,2 µM
2,H-LRPLLRPLLRPLLRPL-NH2,32 µM

# Test system: Pseudomonas aeruginosa
# Assay: Bactericidal activity against Pseudomonas aeruginosa 25349 clinical isolates incubated for 4 hrs followed by culture spread on agar plates and cultured overnight
# Format: functional
# Conditions: Pseudomonas aeruginosa, 25349, 4 h; read-out: MBC>99.9
row,Substance,MBC
1,H-LKPLLKPLLKPLLKPLLKPLLKPLLKPLLKPL-NH2,16 µM
2,H-LRPLLRPLLRPLLRPL-NH2,> 64 µM

# Test system: Klebsiella pneumoniae
# Assay: Antimicrobial activity against Klebsiella pneumoniae after 24 hrs by NCCLS-protocol based assay
# Format: functional
# Conditions: not given
row,Substance,MIC95
1,H-LKPLLKPLLKPLLKPLLKPLLKPLLKPLLKPL-NH2,1 µM
2,H-LRPLLRPLLRPLLRPL-NH2,> 64 µM

# Test system: Escherichia coli
# Assay: Antimicrobial activity against Escherichia coli K99 after 24 hrs by NCCLS-protocol based assay
# Format: functional
# Conditions: K99, 24 h
row,Substance,MIC95
1,H-LKPLLKPLLKPLLKPLLKPLLKPLLKPLLKPL-NH2,1 µM
2,H-LRPLLRPLLRPLLRPL-NH2,32 µM

# Test system: Escherichia coli
# Assay: Bactericidal activity against Escherichia coli 078 incubated for 4 hrs followed by culture spread on agar plates and cultured overnight
# Format: functional
# Conditions: Escherichia coli, 078, 4 h; read-out: MBC>99.9
row,Substance,MBC
1,H-LKPLLKPLLKPLLKPLLKPLLKPLLKPLLKPL-NH2,2 µM
2,H-LRPLLRPLLRPLLRPL-NH2,16 µM

# Test system: Escherichia coli
# Assay: Antimicrobial activity against Escherichia coli ATCC 25922 after 24 hrs by NCCLS-protocol based assay
# Format: functional
# Conditions: ATCC 25922, 24 h
row,Substance,MIC95
1,H-LKPLLKPLLKPLLKPLLKPLLKPLLKPLLKPL-NH2,1 µM
2,H-LRPLLRPLLRPLLRPL-NH2,8 µM

# Test system: Pseudomonas aeruginosa
# Assay: Bactericidal activity against Pseudomonas aeruginosa PAO1 incubated for 4 hrs followed by culture spread on agar plates and cultured overnight
# Format: functional
# Conditions: PAO1, 4 h, read-out: MBC>99.9
row,Substance,MBC
1,H-LKPLLKPLLKPLLKPLLKPLLKPLLKPLLKPL-NH2,2 µM
2,H-LRPLLRPLLRPLLRPL-NH2,> 64 µM

# Test system: Salmonella typhimurium
# Assay: Bactericidal activity against Salmonella typhimurium C7731 incubated for 4 hrs followed by culture spread on agar plates and cultured overnight
# Format: functional, Salmonella enterica subsp. enterica serovar Typhimurium
# Conditions: Salmonella enterica, C7731, 4 h; read-out: MBC>99.9
row,Substance,MBC
1,H-LKPLLKPLLKPLLKPLLKPLLKPLLKPLLKPL-NH2,4 µM
2,H-LRPLLRPLLRPLLRPL-NH2,64 µM

# Test system: Klebsiella pneumoniae
# Assay: Bactericidal activity against Klebsiella pneumoniae incubated for 4 hrs followed by culture spread on agar plates and cultured overnight
# Format: functional
# Conditions: read-out: MBC>99.9
row,Substance,MBC
1,H-LKPLLKPLLKPLLKPLLKPLLKPLLKPLLKPL-NH2,2 µM
2,H-LRPLLRPLLRPLLRPL-NH2,> 64 µM

# Test system: Salmonella typhimurium
# Assay: Antimicrobial activity against Salmonella typhimurium C7731 after 24 hrs by NCCLS-protocol based assay
# Format: functional, Salmonella enterica subsp. enterica serovar Typhimurium
# Conditions: Salmonella enterica, C7731, 24 h
row,Substance,MIC95
1,H-LKPLLKPLLKPLLKPLLKPLLKPLLKPLLKPL-NH2,4 µM
2,H-LRPLLRPLLRPLLRPL-NH2,64 µM

# Test system: Pseudomonas aeruginosa
# Assay: Antimicrobial activity against Pseudomonas aeruginosa PAO1 after 24 hrs by NCCLS-protocol based assay
# Format: functional
# Conditions: PAO1, 24 h
row,Substance,MIC95
1,H-LKPLLKPLLKPLLKPLLKPLLKPLLKPLLKPL-NH2,1 µM
2,H-LRPLLRPLLRPLLRPL-NH2,> 64 µM

# Test system: Pseudomonas aeruginosa
# Assay: Bactericidal activity against Pseudomonas aeruginosa CICC 21625 clinical isolates incubated for 4 hrs followed by culture spread on agar plates and cultured overnight
# Format: functional
# Conditions: CICC 21625, 4 h, read-out: MBC>99.9
row,Substance,MBC
1,H-LKPLLKPLLKPLLKPLLKPLLKPLLKPLLKPL-NH2,16 µM
2,H-LRPLLRPLLRPLLRPL-NH2,> 64 µM

# Test system: Escherichia coli
# Assay: Antimicrobial activity against Escherichia coli K88 after 24 hrs by NCCLS-protocol based assay
# Format: functional
# Conditions: K88, 24 h
row,Substance,MIC95
1,H-LKPLLKPLLKPLLKPLLKPLLKPLLKPLLKPL-NH2,1 µM
2,H-LRPLLRPLLRPLLRPL-NH2,8 µM

# Test system: Pseudomonas aeruginosa
# Assay: Antimicrobial activity against Pseudomonas aeruginosa 25349 clinical isolates after 24 hrs by NCCLS-protocol based assay
# Format: functional
# Conditions: Pseudomonas aeruginosa, 25349, 24 h
row,Substance,MIC95
1,H-LKPLLKPLLKPLLKPLLKPLLKPLLKPLLKPL-NH2,4 µM
2,H-LRPLLRPLLRPLLRPL-NH2,> 64 µM

# Test system: Pseudomonas aeruginosa
# Assay: Antimicrobial activity against Pseudomonas aeruginosa ATCC 27853 after 24 hrs by NCCLS-protocol based assay
# Format: functional
# Conditions: ATCC 27853, 24 h
row,Substance,MIC95
1,H-LKPLLKPLLKPLLKPLLKPLLKPLLKPLLKPL-NH2,2 µM
2,H-LRPLLRPLLRPLLRPL-NH2,> 64 µM

# Test system: Pseudomonas aeruginosa
# Assay: Antimicrobial activity against Pseudomonas aeruginosa CICC 21625 clinical isolates after 24 hrs by NCCLS-protocol based assay
# Format: functional
# Conditions: CICC 21625, 24 h
row,Substance,MIC95
1,H-LKPLLKPLLKPLLKPLLKPLLKPLLKPLLKPL-NH2,4 µM
2,H-LRPLLRPLLRPLLRPL-NH2,64 µM

# Test system: Escherichia coli
# Assay: Bactericidal activity against Escherichia coli UB1005 incubated for 4 hrs followed by culture spread on agar plates and cultured overnight
# Format: functional
# Conditions: UB1005, 4 h, read-out: MBC>99.9
row,Substance,MBC
1,H-LKPLLKPLLKPLLKPLLKPLLKPLLKPLLKPL-NH2,4 µM
2,H-LRPLLRPLLRPLLRPL-NH2,32 µM

# Test system: Pseudomonas aeruginosa
# Assay: Bactericidal activity against Pseudomonas aeruginosa CICC 21630 clinical isolates incubated for 4 hrs followed by culture spread on agar plates and cultured overnight
# Format: functional
# Conditions: CICC 21630, 4 h, read-out: MBC>99.9
row,Substance,MBC
1,H-LKPLLKPLLKPLLKPLLKPLLKPLLKPLLKPL-NH2,8 µM
2,H-LRPLLRPLLRPLLRPL-NH2,> 64 µM

# Test system: Escherichia coli
# Assay: Antimicrobial activity against Escherichia coli UB1005 after 24 hrs by NCCLS-protocol based assay
# Format: functional
# Conditions: UB1005, 24 h
row,Substance,MIC95
1,H-LKPLLKPLLKPLLKPLLKPLLKPLLKPLLKPL-NH2,2 µM
2,H-LRPLLRPLLRPLLRPL-NH2,32 µM

# Test system: Acinetobacter baumannii
# Assay: Antimicrobial activity against Acinetobacter baumannii after 24 hrs by NCCLS-protocol based assay
# Format: functional
# Conditions: not given
row,Substance,MIC95
1,H-LKPLLKPLLKPLLKPLLKPLLKPLLKPLLKPL-NH2,1 µM
2,H-LRPLLRPLLRPLLRPL-NH2,2 µM

# Test system: Escherichia coli
# Assay: Bactericidal activity against Escherichia coli K99 incubated for 4 hrs followed by culture spread on agar plates and cultured overnight
# Format: functional
# Conditions: K99, 4 h, read-out: MBC>99.9
row,Substance,MBC
1,H-LKPLLKPLLKPLLKPLLKPLLKPLLKPLLKPL-NH2,2 µM
2,H-LRPLLRPLLRPLLRPL-NH2,32 µM

# Test system: Acinetobacter baumannii
# Assay: Bactericidal activity against Acinetobacter baumannii incubated for 4 hrs followed by culture spread on agar plates and cultured overnight
# Format: functional
# Conditions: read-out: MBC>99.9
row,Substance,MBC
1,H-LKPLLKPLLKPLLKPLLKPLLKPLLKPLLKPL-NH2,1 µM
2,H-LRPLLRPLLRPLLRPL-NH2,8 µM

# Test system: Salmonella typhimurium
# Assay: Bactericidal activity against Salmonella typhimurium ATCC 14028 incubated for 4 hrs followed by culture spread on agar plates and cultured overnight
# Format: functional, Salmonella enterica subsp. enterica serovar Typhimurium
# Conditions: Salmonella enterica, ATCC 14028, 4 h; read-out: MBC>99.9
row,Substance,MBC
1,H-LKPLLKPLLKPLLKPLLKPLLKPLLKPLLKPL-NH2,4 µM
2,H-LRPLLRPLLRPLLRPL-NH2,64 µM

# Reference: ChEMBL document CHEMBL4316596, “Antimicrobial Peptides with High Proteolytic Resistance for Combating Gram-Negative Bacteria” (J Med Chem, 2019)
